Measurements: paper PMC6036174 (Frontiers in Microbiology, 2018)
Where “and” joins values, the source holds several entries; their conditions need not be identical. Equal values may be shown once.

How the values were obtained:
[1] = test system: M. tuberculosis H37Rv (ATCC 27294); experiment: resazurin microtiter assay, MIC against M. tuberculosis H37Rv; format: cell-based, Mycobacterium tuberculosis; details: Mycobacterium tuberculosis, 168 h, 7 days 37°C, 90% inhibition of growth, read-out: MIC90
M. tuberculosis CDC1551 = experiment: broth tube MIC (visible pellet) against M. tuberculosis CDC1551; format: cell-based, Mycobacterium tuberculosis; details: Mycobacterium tuberculosis, 336 h; M. tuberculosis CDC1551; 14 days 37°C; no visible pellet; read-out: MIC100
M. smegmatis cells = test system: M. smegmatis cells; design: method as in Wei et al., [2003]; details: ref Wei et al., [2003]; cited from earlier work
[2] = A549 cell cytotoxicity (MTT); details: human, A549 lung epithelial cells
[3] = VERO cell cytotoxicity (resazurin); details: African green monkey, VERO (ATCC CCL-81) normal epithelial cells
M. tuberculosis H37Rv = details: M. tuberculosis H37Rv; ref Poggi et al. ([2013]); cited from earlier work
[4] = design: method as in Poggi et al. ([2013]); details: descriptive; ref Poggi et al. ([2013]); cited from earlier work
G. mellonella larvae = experiment: in vivo toxicity in Galleria mellonella larvae; details: for % Mortality: 72 h post-injection
Procedure: G. mellonella larvae in the 6th developmental stage were used to determine the in vivo cytotoxicity of the test complexes (Kellett et al., [2011]; Desbois and Coote, [2012]; McCann et al., [2012]). Thirty healthy larvae, each weighing between 0.2 and 0.4 g and with no cuticle discolouration, were used for each experiment. Fresh solutions of the test complexes were prepared immediately prior to testing under sterile conditions. Test compounds (0.05 g) were dissolved in DMSO (1 mL) and added to sterile water (9 mL) to give a stock solution/suspension (5,000 μg/mL). Test solutions/suspensions were prepared from the corresponding stock solution using Millipore water only to dilute to the desired concentration and each compound was screened across the concentration range of 5,000–100 mg/L. Test solutions/suspensions (20 μL) were administered to the larvae by injection directly into the haemocoel through the last pro-leg. The base of the pro-leg can be opened by applying gentle pressure to the sides of the larvae and this aperture will re-seal after removal of the syringe without leaving a scar. Larvae were placed in sterile Petri dishes and incubated at 30°C for 72 h. The survival of the larvae was monitored every 24 h. Death was assessed by the lack of movement in response to stimulus together with discolouration of the cuticle. Three controls were employed in all assays. The first consisted of untouched larvae maintained at the same temperature as the test larvae. The second was larvae with the pro-leg pierced with an inoculation needle but no solution injected. The third control was larvae that were inoculated with 20 μL of sterile water.

MDR ATCC 49967 = test system: MDR ATCC 49967; design: method as in Hoffman et al., [2013]; details: ref Hoffman et al., [2013]; cited from earlier work
M. tuberculosis = test system: M. tuberculosis; design: method as in Oliveira et al., [2004]; details: based on Na3[Fe(CN)5(INH)]·4H2O; ref Oliveira et al., [2004]; cited from earlier work
mammalian cancer cells = test system: mammalian cancer cells; design: method as in Oliveira et al., [2004]; details: ref Oliveira et al., [2004], read-out: IC50 cytotoxicity; cited from earlier work

NNC(=O)c1ccncc1 [INH, Isoniazid, reference compound]
MIC90 [1]: 0.44 µM and 0.06 µg/mL
MIC (M. tuberculosis CDC1551): 0.44 µM and 0.06 µg/mL
MIC (M. smegmatis cells): > 30 mg/mL and > 218.76 mM
IC50 at 48 h [2]: 319 µg/mL and 2.33 mM
IC50 at 24 h [3]: 333 µg/mL and 2.43 mM

NNC(=O)c1ccncc1.O.O.O.O=S(=O)([O-])[O-].[Cu+2] [[Cu(INH)(H2O)]SO4·2H2O]
MIC (M. tuberculosis H37Rv): 2.2 µM
solubility in water [4]: only very sparingly soluble in water

c1cnc2c(c1)ccc1cccnc12 [phen, 1,10-phenanthroline, reference compound]
MIC90 [1]: 11.2 µg/mL and 61.9 µM
MIC (M. tuberculosis CDC1551): 3 µg/mL and 16.6 µM
% Mortality (G. mellonella larvae; 10 μg per larvae (33.33 mg/kg)): 0%
% Mortality (G. mellonella larvae; 20 μg per larvae (66.67 mg/kg)): 80%
% Mortality (G. mellonella larvae; 40 μg per larvae (133.33 mg/kg)): 80%
% Mortality (G. mellonella larvae; 100 μg per larvae (333.33 mg/kg)): 100%
larvae survived (G. mellonella larvae; highest administered concentration 0.1 mg (333 mg/kg) per larvae): all of the larvae injected at this concentration with phen died
In vivo G. mellonella tolerance order in μmol (G. mellonella larvae; rank, 1st = best tolerated, from Table 2): 5th
In vivo G. mellonella tolerance order in μmol (Normalized against no. of phens) (G. mellonella larvae; rank, normalized with respect to phen content): 4th
IC50 at 48 h [2]: 4.3 µg/mL and 23.9 µM
IC50 at 24 h [3]: > 10 µg/mL and > 55.5 µM

O=P([O-])([O-])OP(=O)([O-])[O-].[Co+2].[Co+2].c1cnc2c(c1)ccc1cccnc12.c1cnc2c(c1)ccc1cccnc12.c1cnc2c(c1)ccc1cccnc12.c1cnc2c(c1)ccc1cccnc12 [{[Co(phen)2]2(μ-P2O7)}]
MIC (MDR ATCC 49967): 2.41 µM

O=P([O-])([O-])OP(=O)([O-])[O-].[Cu+2].[Cu+2].c1cnc2c(c1)ccc1cccnc12.c1cnc2c(c1)ccc1cccnc12 [{[Cu(phen)]2(μ-P2O7)}]
MIC (MDR ATCC 49967): 2.80 µM

[CoCl(INH)2(H2O)]Cl·2.5H2O
MIC (M. tuberculosis H37Rv): 0.41 µM
solubility in water [4]: only very sparingly soluble in water

[Fe(CN)5(INH)]^3−
MIC (M. tuberculosis): 0.43 µM
IC50 (mammalian cancer cells): > 54 µM
